Laboratory results from patent US8309718B2, “4-pyrazolyl-N-arylpyrimidin-2-amines and 4-pyrazolyl-N-heteroarylpyrimidin-2-amines as janus kinase inhibitors” (Incyte Corporation, priority 2007, dated 2012).
pIC50: −log10 of the molar value.

The compounds below were run against T1, human JAK2 (Homo sapiens, UniProt O60674) (assay: In vitro JAK kinase assay (HTRF, phosphorylation of biotinylated peptide)). Conditions: catalytic domain a.a. 828-1132, 30 μM ATP, 500 nM peptide, room temperature 1 hr; read-out: JAK-2 IC50.
T1 construct: JAK2 (a.a. 828-1132); His tag (N); made in house; host or cells: insect cells (baculovirus)
T1 sequence (O60674 828-1132): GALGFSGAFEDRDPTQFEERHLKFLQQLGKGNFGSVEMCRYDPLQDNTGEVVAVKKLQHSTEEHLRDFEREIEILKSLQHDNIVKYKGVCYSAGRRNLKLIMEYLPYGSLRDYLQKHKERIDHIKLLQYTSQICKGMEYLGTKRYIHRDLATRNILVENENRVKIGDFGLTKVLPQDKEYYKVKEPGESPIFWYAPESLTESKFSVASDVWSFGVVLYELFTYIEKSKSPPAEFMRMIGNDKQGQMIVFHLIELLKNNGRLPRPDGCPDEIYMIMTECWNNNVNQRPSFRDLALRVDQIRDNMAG
Type: biochemical
Procedure, shortened: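 His-tagged human JAK2 catalytic domain (a.a. 828-1132), baculovirus/insect-cell expressed; phosphorylation of 500 nM biotinylated peptide at 30 μM ATP in 50 mM Tris pH 7.8, 100 mM NaCl, 5 mM DTT, 0.01% BSA. 1 h at room temperature, EDTA stop, HTRF read (Eu-Py20/SA-APC); IC50.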

pIC50 | Structure (SMILES)
> 7.00 | CC(=O)N1CCN(C(=O)c2ccc(Nc3nccc(-c4cnn(C(CC#N)C5CC5)c4)n3)cc2)CC1 (racemic) [Example 269, 3-(4-(2-(4-(4-acetylpiperazine-1-carbonyl)phenylamino)pyrimidin-4-yl)-1H-pyrazol-1-yl)-3-cyclopropylpropanenitrile]
> 7.00 | COc1cnc(Nc2cccc(C(=O)N3CCC3)c2)nc1-c1cnn(C(CC#N)C2CC2)c1 (racemic) [Example 334, 3-[4-(2-{[3-(azetidin-1-ylcarbonyl)phenyl]amino}-5-methoxypyrimidin-4-yl)-1H-pyrazol-1-yl]-3-cyclopropylpropanenitrile]
> 7.00 | N#CCC(C1CCCC1)n1cc(-c2ccnc(Nc3cccc(C(=O)N[C@H]4CCN(Cc5ccccc5)C4)c3)n2)cn1 (mixture of isomers) [Example 167, N—((S)-1-benzylpyrrolidin-3-yl)-3-(4-(1-(2-cyano-1-cyclopentylethyl)-1H-pyrazol-4-yl)pyrimidin-2-ylamino)benzamide]
> 7.00 | N#CCC1(n2cc(-c3ccnc(Nc4ccc(N5CCOCC5)cc4)n3)cn2)CCN(C(=O)c2ccno2)CC1 [Example 94, 2-(1-(isoxazole-5-carbonyl)-4-(4-(2-(4-morpholinophenylamino)pyrimidin-4-yl)-1H-pyrazol-1-yl)piperidin-4-yl)acetonitrile]
> 7.00 | Cc1cnc(Nc2ccc(NC(=O)CN3CCCC3)cc2)nc1-c1cnn(C(CC#N)C2CCCC2)c1 (racemic) [Example 91, N-(4-(4-(1-(2-cyano-1-cyclopentylethyl)-1H-pyrazol-4-yl)-5-methylpyrimidin-2-ylamino)phenyl)-2-(pyrrolidin-1-yl)acetamide]
> 7.00 | CCOC(=O)N1CCC(NC(=O)c2ccc(Nc3nccc(-c4cnn(C(CC#N)C5CCCC5)c4)n3)cc2)CC1 (racemic) [Example 231, Ethyl 4-(4-(4-(1-(2-cyano-1-cyclopentylethyl)-1H-pyrazol-4-yl)pyrimidin-2-ylamino)benzamido)piperidine-1-carboxylate]
> 7.00 | CCS(=O)(=O)N1CC(CC#N)(n2cc(-c3ccnc(Nc4ccc(C(=O)N5CCC(OC)CC5)cc4)n3)cn2)C1 [Example 275, (1-(ethylsulfonyl)-3-4-(2-(4-((4-methoxypiperidin-1-yl)carbonyl)phenylamino)pyrimidin-4-yl)-1H-pyrazol-1-ylazetidin-3-yl)acetonitrile]
> 7.00 | Cc1cnc(Nc2ccc(C(=O)N(C)C)cc2)nc1-c1cnn(C(CC#N)C2CCCC2)c1 (racemic) [Example 77, 4-(4-(1-(2-cyano-1-cyclopentylethyl)-1H-pyrazol-4-yl)-5-methylpyrimidin-2-ylamino)-N,N-dimethylbenzamide]
> 7.00 | N#CCC(C1CCOCC1)n1cc(-c2ccnc(Nc3ccc(C(=O)N4CCC(C#N)CC4)cc3)n2)cn1 (racemic) [Example 314, 1-{4-[(4-{1-[2-cyano-1-(tetrahydro-2H-pyran-4-yl)ethyl]-1H-pyrazol-4-yl}pyrimidin-2-yl)amino]benzoyl}piperidine-4-carbonitrile]
> 7.00 | N#CCC1(n2cc(-c3ccnc(Nc4ccc(-n5cccn5)cc4)n3)cn2)CCN(S(=O)(=O)C2CC2)CC1 [Example 28, 2-(4-(4-(2-(4-(1H-pyrazol-1-yl)phenylamino)pyrimidin-4-yl)-1H-pyrazol-1-yl)-1-(cyclopropylsulfonyl)piperidin-4-yl)acetonitrile]
> 7.00 | CCN(CCCO)c1ccc(Nc2ncc(C)c(-c3cnn(C(CC#N)C4CCCC4)c3)n2)cc1 (racemic) [Example 80, 3-cyclopentyl-3-(4-(2-(4-(ethyl(3-hydroxypropyl)amino)phenylamino)-5-methylpyrimidin-4-yl)-1H-pyrazol-1-yl)propanenitrile]
> 7.00 | N#CCC(C1CCCC1)n1cc(-c2ccnc(Nc3ccc(NS(=O)(=O)c4ccc(N5CCOCC5)nc4)cc3)n2)cn1 (racemic) [Example 197, N-(4-(4-(1-(2-cyano-1-cyclopentylethyl)-1H-pyrazol-4-yl)pyrimidin-2-ylamino)phenyl)-6-morpholinopyridine-3-sulfonamide]
> 7.00 | COC[C@H]1CCCN1CC(=O)Nc1ccc(Nc2nccc(-c3cnn(C(CC#N)C4CCCC4)c3)n2)cc1 (mixture of isomers) [Example 209, N-(4-(4-(1-(2-cyano-1-cyclopentylethyl)-1H-pyrazol-4-yl)pyrimidin-2-ylamino)phenyl)-2-((R)-2-(methoxymethyl)pyrrolidin-1-yl)acetamide]
> 7.00 | COc1cnc(Nc2ccc(N3CCOC3=O)cc2)nc1-c1cnn(C(CC#N)C2CCCC2)c1 (racemic) [Example 136, 3-cyclopentyl-3-(4-(5-methoxy-2-(4-(2-oxooxazolidin-3-yl)phenylamino)pyrimidin-4-yl)-1H-pyrazol-1-yl)propanenitrile]
> 7.00 | Cc1cnc(Nc2ccc(C(N)=O)cc2)nc1-c1cnn(C(CC#N)CC2CCN(S(=O)(=O)c3ccn(C)n3)CC2)c1 (racemic) [Example 53, 4-(4-(1-(1-cyano-3-(1-(1-methyl-1H-pyrazol-3-ylsulfonyl)piperidin-4-yl)propan-2-yl)-1H-pyrazol-4-yl)-5-methylpyrimidin-2-ylamino)benzamide]
> 7.00 | N#CCC(C1CCCC1)n1cc(-c2ccnc(Nc3ccc(NC(=O)CN4CC[C@@H](O)C4)cc3)n2)cn1 (stereo partly drawn) [Example 204, N-(4-(4-(1-(2-cyano-1-cyclopentylethyl)-1H-pyrazol-4-yl)pyrimidin-2-ylamino)phenyl)-2-((R)-3-hydroxypyrrolidin-1-yl)acetamide]
> 7.00 | CC[C@H](NC(=O)c1ccc(Nc2nccc(-c3cnn(C(CC#N)C4CCCC4)c3)n2)cc1)C(=O)N(C)C (mixture of isomers) [Example 235, 4-(4-(1-(2-cyano-1-cyclopentylethyl)-1H-pyrazol-4-yl)pyrimidin-2-ylamino)-N—((S)-1-(dimethylamino)-1-oxobutan-2-yl)benzamide]
> 7.00 | N#CCC(C1CCCC1)n1cc(-c2ccnc(Nc3ccc(N4CCOCC4)cc3)n2)cn1 (racemic) [Example 35, 3-cyclopentyl-3-(4-(2-(4-morpholinophenylamino)pyrimidin-4-yl)-1H-pyrazol-1-yl)propanenitrile]
> 7.00 | N#CCC(C1CCCC1)n1cc(-c2ccnc(Nc3ccc(NC(=O)CN4CCC(O)CC4)cc3)n2)cn1 (racemic) [Example 205, N-(4-(4-(1-(2-cyano-1-cyclopentylethyl)-1H-pyrazol-4-yl)pyrimidin-2-ylamino)phenyl)-2-(4-hydroxypiperidin-1-yl)acetamide]
> 7.00 | COc1cccc([C@@H](C)NC(=O)c2cccc(Nc3nccc(-c4cnn(C(CC#N)C5CCCC5)c4)n3)c2)c1 (mixture of isomers) [Example 145, 3-(4-(1-(2-cyano-1-cyclopentylethyl)-1H-pyrazol-4-yl)pyrimidin-2-ylamino)-N—((R)-1-(3-methoxyphenyl)ethyl)benzamide]
> 7.00 | N#CCC(C1CC1)n1cc(-c2ccnc(Nc3ccc(C(=O)N4CC[C@@H](O)C4)cc3)n2)cn1 (mixture of isomers) [Example 266, 3-cyclopropyl-3-(4-(2-(4-((R)-3-hydroxypyrrolidine-1-carbonyl)phenylamino)pyrimidin-4-yl)-1H-pyrazol-1-yl)propanenitrile]
> 7.00 | CN1CCN(C(=O)c2ccc(Nc3nccc(-c4cnn(C5(CC#N)CC(C#N)C5)c4)n3)cc2)CC1 (single isomer, unassigned) [Example 293, 3-(cyanomethyl)-3-(4-(2-(4-(4-methylpiperazine-1-carbonyl)phenylamino)pyrimidin-4-yl)-1H-pyrazol-1-yl)cyclobutanecarbonitrile]
> 7.00 | CO[C@H]1CCN(C(=O)c2ccc(Nc3nccc(-c4cnn(C(CC#N)C5CCOCC5)c4)n3)cc2)C1 (mixture of isomers) [Example 316, 3-(4-{2-[(4-{[(3S)-3-methoxypyrrolidin-1-yl]carbonyl}phenyl)amino]pyrimidin-4-yl}-1H-pyrazol-1-yl)-3-(tetrahydro-2H-pyran-4-yl)propanenitrile]
> 7.00 | COc1cnc(Nc2cccc(C(=O)N3CCOCC3)c2)nc1-c1cnn(C(CC#N)C2CC2)c1 (racemic) [Example 328, 3-cyclopropyl-3-[4-(5-methoxy-2-{[3-(morpholin-4-ylcarbonyl)phenyl]amino}pyrimidin-4-yl)-1H-pyrazol-1-yl]propanenitrile]
> 7.00 | CN(C)C(=O)c1ccc(Nc2nccc(-c3cnn(C4(CC#N)CCN(S(=O)(=O)C5CC5)CC4)c3)n2)cc1 [Example 32, 4-(4-(1-(4-(cyanomethyl)-1-(cyclopropylsulfonyl)piperidin-4-yl)-1H-pyrazol-4-yl)pyrimidin-2-ylamino)-N,N-dimethylbenzamide]
> 7.00 | N#CCC(C1CC1)n1cc(-c2ccnc(Nc3ccc(N4CCCCC4=O)cc3)n2)cn1 (racemic) [Example 179, 3-cyclopropyl-3-(4-(2-(4-(2-oxopiperidin-1-yl)phenylamino)pyrimidin-4-yl)-1H-pyrazol-1-yl)propanenitrile]
> 7.00 | N#CCC1(n2cc(-c3ccnc(Nc4ccc(C(=O)NC5CCOCC5)cc4)n3)cn2)CC(C#N)C1 (single isomer, unassigned) [Example 289, 4-(4-(1-(3-cyano-1-(cyanomethyl)cyclobutyl)-1H-pyrazol-4-yl)pyrimidin-2-ylamino)-N-(tetrahydro-2H-pyran-4-yl)benzamide]
> 7.00 | N#CCC(C1CCCC1)n1cc(-c2ccnc(Nc3cccc(C(=O)NCCN4CCNC4=O)c3)n2)cn1 (stereo not shown) [Example 159, 3-(4-(1-(2-cyano-1-cyclopentylethyl)-1H-pyrazol-4-yl)pyrimidin-2-ylamino)-N-(2-(2-oxoimidazolidin-1-yl)ethyl)benzamide]
